Measured values published in US12281122B1, “PI3K inhibitors” (Cogent Biosciences, Inc., priority 2023, dated 2025).

Assays:
[1] = system: T47D (PI3Kα-H1047R) cell line; assay: HTRF phospho-AKT(S473) cell assay in T47D cells; format: cell-based, human
Summary of the method: (§1)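 T47D: RPMI + 10% FBS + 0.2 units/mL insulin, top 5 μM. SKBR3: McCoy's 5A + 10% FBS, top 10 μM, 70 ng/ml PDGF-BB last 15 min. Both: 12-pt 1:3, 2 h, 37° C, max 0.5% DMSO; HTRF pAKT(S473); IC50.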

[2] = system: SKBR3 (PI3Kα-Wild Type) cell line; assay: HTRF phospho-AKT(S473) cell assay in SKBR3 cells; format: cell-based, human
Summary of the method: as §1

[3] = Homo sapiens; T47D (PI3Kα-H1047R) cells, HTRF phospho-AKT(S473), 2 hours compound incubation
[4] = Homo sapiens, SK-BR-3; SKBR3 (PI3Kα-Wild Type) cells, HTRF phospho-AKT(S473), 2 hours compound incubation, PDGF-BB stimulated
[5] = Homo sapiens; HTRF phospho-AKT(S473), T47D (PI3Kα-H1047R) cells, 2 hours compound incubation
[6] = Homo sapiens, SK-BR-3; HTRF phospho-AKT(S473), SKBR3 (PI3Kα-Wild Type) cells, 2 hours compound incubation, PDGF-BB stimulated

SMILES	IC50 [1, 3] [nM]	IC50 [2, 4] [nM]	IC50 [1, 5] [nM]	IC50 [2, 6] [nM]
Cc1cc([C@@H](C)Nc2ccc(Cl)nc2C(=O)NS(C)(=O)=O)c2nc(N3C[C@@H]4[C@H](C3)[C@H]4c3cn(C)nn3)n(C)c(=O)c2c1 [Compound 387, 6-chloro-3-(((R)-1-(3,6-dimethyl-2-((1R,5S,6R)-6-(1-methyl-1H-1,2,3-triazol-4-yl)-3-azabicyclo[3.1.0]hexan-3-yl)-4-oxo-3,4-dihydroquinazolin-8-yl)ethyl)amino)-N-(methylsulfonyl) picolinamide]	< 250	1000 to 5000	–	–
COc1cc(C2CCN(c3nc4c([C@@H](C)Nc5ccc(Cl)nc5C(=O)NS(C)(=O)=O)cc(C)cc4c(=O)n3C)CC2)ccn1 [Compound 640, (R)-6-chloro-3-((1-(2-(4-(2-methoxypyridin-4-yl)piperidin-1-yl)-3,6-dimethyl-4-oxo-3,4-dihydroquinazolin-8-yl)ethyl)amino)-N-(methylsulfonyl) picolinamide]	–	–	250 to 500	≥ 5000
Cc1cc([C@@H](C)Nc2ccc(Cl)nc2C(=O)NS(C)(=O)=O)c2nc(N3Cc4cn(-c5ncccc5C)nc4C3)n(C)c(=O)c2c1 [Compound 701, (R)-6-chloro-3-((1-(3,6-dimethyl-2-(2-(3-methylpyridin-2-yl)-2,6-dihydropyrrolo[3,4-c]pyrazol-5(4H)-yl)-4-oxo-3,4-dihydroquinazolin-8-yl)ethyl)amino)-N-(methylsulfonyl) picolinamide]	–	–	250 to 500	≥ 5000
Cc1cc([C@@H](C)Nc2ccc(Cl)nc2C(=O)NS(C)(=O)=O)c2nc(N3CC[C@@H](Oc4ccc(F)cc4)C3)n(C)c(=O)c2c1 [Compound 203, 6-chloro-3-(((R)-1-(2-((R)-3-(4-fluorophenoxy)pyrrolidin-1-yl)-3,6-dimethyl-4-oxo-3,4-dihydroquinazolin-8-yl)ethyl)amino)-N-(methylsulfonyl) picolinamide]	< 250	1000 to 5000	–	–
Cc1cc([C@@H](C)Nc2ccc(Cl)nc2C(=O)NS(C)(=O)=O)c2nc(N3C[C@@H]4[C@H](C3)[C@H]4c3cnn(C)c3)n(C)c(=O)c2c1 [Compound 336, 6-chloro-3-(((R)-1-(3,6-dimethyl-2-((1R,5S,6S)-6-(1-methyl-1H-pyrazol-4-yl)-3-azabicyclo[3.1.0]hexan-3-yl)-4-oxo-3,4-dihydroquinazolin-8-yl)ethyl)amino)-N-(methylsulfonyl) picolinamide]	< 250	1000 to 5000	–	–
Cc1cc([C@@H](C)Nc2ccc(Cl)nc2C(=O)NS(C)(=O)=O)c2nc(N3CCC(c4ccnn4C(F)(F)F)CC3)n(C)c(=O)c2c1 [Compound 446, (R)-6-chloro-3-((1-(3,6-dimethyl-4-oxo-2-(4-(1-(trifluoromethyl)-1H-pyrazol-5-yl)piperidin-1-yl)-3,4-dihydroquinazolin-8-yl)ethyl)amino)-N-(methylsulfonyl) picolinamide]	–	–	250 to 500	≥ 5000
CCn1c(N2CCC(c3nc(C)n(C)n3)CC2)nc2c([C@@H](C)Nc3ccc(Cl)nc3C(=O)NS(C)(=O)=O)cc(C)cc2c1=O [Compound 616, (R)-6-chloro-3-((1-(2-(4-(1,5-dimethyl-1H-1,2,4-triazol-3-yl)piperidin-1-yl)-3-ethyl-6-methyl-4-oxo-3,4-dihydroquinazolin-8-yl)ethyl)amino)-N-(methylsulfonyl) picolinamide]	–	–	< 250	≥ 5000
Cc1cc([C@@H](C)Nc2ccc(Cl)nc2C(=O)NS(C)(=O)=O)c2nc(N3CCC[C@H](Oc4cnc(C)cn4)C3)n(C)c(=O)c2c1 [Compound 383, 6-chloro-3-(((R)-1-(3,6-dimethyl-2-((S)-3-((5-methylpyrazin-2-yl)oxy)piperidin-1-yl)-4-oxo-3,4-dihydroquinazolin-8-yl)ethyl)amino)-N-(methylsulfonyl) picolinamide]	250 to 500	≥ 5000	–	–
Cc1cc([C@@H](C)Nc2ccc(Cl)nc2C(=O)NS(C)(=O)=O)c2nc(N3CCC(c4cnc(C)o4)CC3)n(C)c(=O)c2c1 [Compound 521, (R)-6-chloro-3-((1-(3,6-dimethyl-2-(4-(2-methyloxazol-5-yl)piperidin-1-yl)-4-oxo-3,4-dihydroquinazolin-8-yl)ethyl)amino)-N-(methylsulfonyl) picolinamide]	–	–	< 250	1000 to 5000
COc1cc(O[C@H]2CCN(c3nc4c([C@@H](C)Nc5ccc(Cl)nc5C(=O)NS(C)(=O)=O)cc(C)cc4c(=O)n3C)C2)c(F)cn1 [Compound 611, 6-chloro-3-(((R)-1-(2-((S)-3-((5-fluoro-2-methoxypyridin-4-yl)oxy)pyrrolidin-1-yl)-3,6-dimethyl-4-oxo-3,4-dihydroquinazolin-8-yl)ethyl)amino)-N-(methylsulfonyl) picolinamide]	–	–	250 to 500	≥ 5000
Cc1cc([C@@H](C)Nc2ccc(Cl)nc2C(=O)NS(C)(=O)=O)c2nc(N3C[C@@H]4[C@H](C3)[C@H]4n3cc(C)cn3)n(C)c(=O)c2c1 [Compound 491, 6-chloro-3-(((R)-1-(3,6-dimethyl-2-((1R,5S,6S)-6-(4-methyl-1H-pyrazol-1-yl)-3-azabicyclo[3.1.0]hexan-3-yl)-4-oxo-3,4-dihydroquinazolin-8-yl)ethyl)amino)-N-(methylsulfonyl) picolinamide]	–	–	250 to 500	1000 to 5000
Cc1cc([C@@H](C)Nc2ccc(Cl)nc2C(=O)NS(C)(=O)=O)c2nc(N3Cc4cncnc4C3)n(C)c(=O)c2c1 [Compound 517, (R)-6-chloro-3-((1-(2-(5,7-dihydro-6H-pyrrolo [3,4-d]pyrimidin-6-yl)-3,6-dimethyl-4-oxo-3,4-dihydroquinazolin-8-yl)ethyl)amino)-N-(methylsulfonyl) picolinamide]	–	–	250 to 500	1000 to 5000
Cc1cc([C@@H](C)Nc2ccc(Cl)nc2C(=O)NS(C)(=O)=O)c2nc(N3CC[C@@H](Oc4cncnc4)C3)n(C)c(=O)c2c1 [Compound 707, 6-chloro-3-(((R)-1-(3,6-dimethyl-4-oxo-2-((R)-3-(pyrimidin-5-yloxy)pyrrolidin-1-yl)-3,4-dihydroquinazolin-8-yl)ethyl)amino)-N-(methylsulfonyl) picolinamide]	–	–	250 to 500	1000 to 5000
Cc1cc([C@@H](C)Nc2ccc(Cl)nc2C(=O)NS(C)(=O)=O)c2nc(N3CCC(n4cc(-c5ccccc5)cn4)CC3)n(C)c(=O)c2c1 [Compound 235, (R)-6-chloro-3-((1-(3,6-dimethyl-4-oxo-2-(4-(4-phenyl-1H-pyrazol-1-yl)piperidin-1-yl)-3,4-dihydroquinazolin-8-yl)ethyl)amino)-N-(methylsulfonyl) picolinamide]	250 to 500	≥ 5000	–	–
[2H]C([2H])([2H])n1ncc(F)c1C1CCN(c2nc3c([C@@H](C)Nc4ccc(Cl)nc4C(=O)NS(C)(=O)=O)cc(C)cc3c(=O)n2C)CC1 [Compound 457, (R)-6-chloro-3-((1-(2-(4-(4-fluoro-1-(methyl-d3)-1H-pyrazol-5-yl)piperidin-1-yl)-3,6-dimethyl-4-oxo-3,4-dihydroquinazolin-8-yl)ethyl)amino)-N-(methylsulfonyl) picolinamide]	–	–	500 to 1000	≥ 5000
Cc1cc([C@@H](C)Nc2ccc(Cl)nc2C(=O)NS(C)(=O)=O)c2nc(N3C[C@@H]4[C@H](C3)[C@H]4c3ncn(C)n3)n(C)c(=O)c2c1 [Compound 507, 6-chloro-3-(((R)-1-(3,6-dimethyl-2-((1R,5S,6R)-6-(1-methyl-1H-1,2,4-triazol-3-yl)-3-azabicyclo[3.1.0]hexan-3-yl)-4-oxo-3,4-dihydroquinazolin-8-yl)ethyl)amino)-N-(methylsulfonyl) picolinamide]	–	–	250 to 500	1000 to 5000
Cc1cc([C@@H](C)Nc2ccc(Cl)nc2C(=O)NS(C)(=O)=O)c2nc(N3CCC(c4nc(C)nn4C)CC3)n(C)c(=O)c2c1 [Compound 523, (R)-6-chloro-3-((1-(2-(4-(1,3-dimethyl-1H-1,2,4-triazol-5-yl)piperidin-1-yl)-3,6-dimethyl-4-oxo-3,4-dihydroquinazolin-8-yl)ethyl)amino)-N-(methylsulfonyl) picolinamide]	–	–	250 to 500	≥ 5000
CO[C@H]1C[C@H](S(=O)(=O)NC(=O)c2nc(Cl)ccc2N[C@H](C)c2cc(C)cc3c(=O)n(C)c(N4Cc5ccc(F)cc5C4)nc23)C1 [Compound 379, 6-chloro-3-(((R)-1-(2-(5-fluoroisoindolin-2-yl)-3,6-dimethyl-4-oxo-3,4-dihydroquinazolin-8-yl)ethyl)amino)-N-(((1r,3R)-3-methoxycyclobutyl)sulfonyl)picolinamide]	250 to 500	≥ 5000	–	–
Cc1cc([C@@H](C)Nc2ccc(Cl)nc2C(=O)NS(C)(=O)=O)c2nc(N3CCC[C@H](c4cnc(C)cn4)C3)n(C)c(=O)c2c1 (relative stereo) [Compound 585, 6-chloro-3-(((R)-1-(3,6-dimethyl-2-((R*)-3-(5-methylpyrazin-2-yl)piperidin-1-yl)-4-oxo-3,4-dihydroquinazolin-8-yl)ethyl)amino)-N-(methylsulfonyl) picolinamide]	–	–	250 to 500	≥ 5000
Cc1cc([C@@H](C)Nc2ccc(Cl)nc2C(=O)NS(C)(=O)=O)c2nc(-c3ccc4c(c3)CN(C)C4=O)n(C)c(=O)c2c1 [Compound 796, (R)-6-chloro-3-((1-(3,6-dimethyl-2-(2-methyl-1-oxoisoindolin-5-yl)-4-oxo-3,4-dihydroquinazolin-8-yl)ethyl)amino)-N-(methylsulfonyl) picolinamide]	–	–	< 250	1000 to 5000
